Earlier results as cited in patent US20240181106A1, “WATER-SOLUBLE PHOTOSENSITIVE COMPOSITION OF PHOTODYNAMIC ENVIRONMENTAL DISINFECTION AND METHOD OF ENVIRONMENTAL DISINFECTION BY USING THE SAME” (NATIONAL CHENG KUNG UNIVERSITY, priority 2022, published 2024).

CN(C)c1ccc2nc3ccc(=[N+](C)C)cc-3sc2c1 [methylene blue]
safe single dose (60 kg-weight adult, every 4 hours): 120 mg
daily dose not to be exceeded (human): ≤ 7 mg/kg daily
maximum safe dose administered to a human (human): 2 mg/kg/single dose
